Source: PMC5607265, “Design, synthesis and structure-activity relationship of 3,6-diaryl-7H-[1,2,4]triazolo[3,4-b][1,3,4]thiadiazines as novel tubulin inhibitors” (Scientific Reports, 2017)
Entries after “also recorded” stand apart in the source; their conditions may differ.

What was measured:
[1] = molecular target: T1, highly purified tubulin from porcine brain (Sus scrofa, UniProt P02554); assay: Tubulin polymerization assay; type: biochemical; conditions: 37 °C; for effect on tubulin polymerization in words: CA-4 0.5-4 µM, 6i 0.1-8.0 µM, paclitaxel 5.0 µM
T1 construct: highly purified tubulin from porcine brain; purchased Cytoskeleton BK011P; host or cells: porcine brain (tissue-purified)
Protocol: This assay uses highly purified tubulin from porcine brain.
The reaction was monitored at 37 °C.
(§1) Tubulin polymerization assay[33] was conducted with reagents as described in the kit manufacturer (Cytoskeleton, Cat.#BK011P) in a 96-well plate. In brief, tubulin was re-suspended in ice-cold G-PEM buffer (80 mM PIPES, 2 mM MgCl2, 0.5 mM EGTA, 1 mM GTP, 20% (v/v) glycerol) and added to wells on a 96-well plate containing the designated concentration of drugs or vehicle. Samples were mixed well, and tubulin assembly was monitored (emission wavelength: 450 ± 20 nm; excitation wavelength: 360 ± 20 nm) at 1 min intervals for 90 min at 37 °C in a SpectraMax 340PC spectrophotometer (Biotek Synergy HT, Winooskin, VT, USA). IC50 values were calculated from data at the 20 min time point using GraphPad Prism software. Experiments were repeated three times.
as §1, with “assay” for “assay[33]”, “450±20” for “450 ± 20”, “360±20” for “360 ± 20”, “timepoint” for “time point”

[2] = tested on: tubulin network of SGC-7901 cells; assay: Immunofluorescence of tubulin network; type: cell-based, human; conditions: 2-fold IC50 (0.022 µM), 12 h
Protocol: CA-4 was employed as positive control in this experiment.
Figure 4 Effects of 6i on tubulin network of SGC-7901 cells by immunofluorenscence. […] The left and middle panels represent the tubulin assembly stained with DAPI and FITC and the right panel represents a merge of the corresponding left and middle panels.
The SGC-7901 cells were seeded at a density of 1 × 10^4 per well on a 24-well plate and grown for 24 h. […] Cells in the control group were treated with culture medium. The control and treated cells were fixed with 4% formaldehyde in PBS for 30 min at -20 °C, then washed twice with PBS and permeabilized with 0.1% (v/v) Triton X-100 in PBS for 5 min. Then, the cells were blocked with 3% bovine serum albumin (BSA) in PBS for 30 min. […] The cells were washed with PBS to remove unbound secondary antibody, nucleus was stained with 4,6-diamino-2-phenolindol dihydrochloride (DAPI) and then, immunofluorescence was detected using a fluorescence microscope (Olympus, Tokyo, Japan).
Immunostaining was carried out to detect microtubule associated tubulin protein after exposure to 6i and CA-4. […] The cells were washed with PBS to remove unbound secondary antibody, nucleus was stained with 4,6-diamino-2-phenolindol dihydrochloride (DAPI) and then, immunofluorescence was detected using a fluorescence microscope (Olympus, Tokyo, Japan).

SGC-7901 cells = assay: Cell cycle analysis by flow cytometry; type: cell-based, human; conditions: for cell cycle arrest: SGC-7901, 12 h, 6i 0.011, 0.022, 0.044 µM, CA-4 0.022 µM
Protocol: Thus, the effect of compound 6i on the cell cycle progression of the SGC-7901 cells was investigated by flow cytometry analysis (Fig. 5). […] Compound 6i could arrest cell cycle distribution at the G2/M phase in a dose-dependent manner.
Figure 5 Compound 6i affects the cell cycle progression in SGC-7901 cells.
Cell cycle analysis studies were performed by following a previously reported method. […] The cells were collected by centrifugation, washed with PBS and fixed in ice-cold 70% ethanol. The fixed cells were harvested by centrifugation and resuspended in 500 µl of PBS containing 1 mg/mL RNase. After 30 min of incubation at 37 °C, the cells were stained with […] propidium iodide (PI) at 4 °C in the dark for 30 min. The samples were then analyzed by FACScan flow cytometry (Becton-Dickinson, Franklin Lakes, NJ, USA). The experiments were repeated at least three times.
The cells were collected by centrifugation, washed with PBS and fixed in ice-cold 70% ethanol. The fixed cells were harvested by centrifugation and resuspended in 500 µl of PBS containing 1 mg/mL RNase. After 30 min of incubation at 37°C, the cells were stained with […] propidium iodide (PI) at 4°C in the dark for 30 min. The samples were then analyzed by FACScan flow cytometry (Becton-Dickinson, Franklin Lakes, NJ, USA). The experiments were repeated at least three times.
Figure S1 Compound 6i induced G2/M phase arrest in a time-dependent manner. SGC-7901 cells were treated with 6i (0.022 µM) for time 12, 24, 36, 48 and 60 h, then stained with PI and subjected to flow cytometric analysis.

T1 sequence (P02554 whole entry): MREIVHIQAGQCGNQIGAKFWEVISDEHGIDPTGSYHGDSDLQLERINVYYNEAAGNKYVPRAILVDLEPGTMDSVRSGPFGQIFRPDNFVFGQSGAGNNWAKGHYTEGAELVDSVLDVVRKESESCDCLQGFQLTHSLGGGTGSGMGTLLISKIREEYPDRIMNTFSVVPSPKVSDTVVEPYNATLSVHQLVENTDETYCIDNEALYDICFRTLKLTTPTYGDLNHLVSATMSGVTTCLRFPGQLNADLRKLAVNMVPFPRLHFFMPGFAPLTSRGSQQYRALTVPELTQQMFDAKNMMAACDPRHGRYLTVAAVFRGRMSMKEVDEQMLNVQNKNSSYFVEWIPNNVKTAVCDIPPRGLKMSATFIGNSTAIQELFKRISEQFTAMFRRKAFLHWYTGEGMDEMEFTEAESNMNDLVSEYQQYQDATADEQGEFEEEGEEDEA
T1 sequence (P02550 whole entry partner): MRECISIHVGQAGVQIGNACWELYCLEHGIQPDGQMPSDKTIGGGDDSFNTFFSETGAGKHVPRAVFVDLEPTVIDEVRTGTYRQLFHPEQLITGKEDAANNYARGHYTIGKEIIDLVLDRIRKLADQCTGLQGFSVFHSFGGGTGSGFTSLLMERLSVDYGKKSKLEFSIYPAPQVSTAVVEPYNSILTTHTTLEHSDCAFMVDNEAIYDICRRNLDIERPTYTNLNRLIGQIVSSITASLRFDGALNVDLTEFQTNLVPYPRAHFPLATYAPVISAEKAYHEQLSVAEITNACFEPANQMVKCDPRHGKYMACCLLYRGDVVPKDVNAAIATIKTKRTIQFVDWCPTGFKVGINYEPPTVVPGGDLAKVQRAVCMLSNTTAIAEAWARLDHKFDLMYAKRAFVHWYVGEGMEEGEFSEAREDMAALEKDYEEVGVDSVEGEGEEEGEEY

| IC50 ([1]; data at the 20 min time point, read-out: IC50 of tubulin polymerization inhibition) | SMILES | effect on tubulin polymerization in words [1] | effect on microtubule/tubulin network [2] | apoptosis after G2/M arrest (sub-G1) (SGC-7901 cells; SGC-7901, 6i 0.022 µM, 12-60 h) | cell cycle arrest (SGC-7901 cells) |
| --- | --- | --- | --- | --- | --- |
| 1600 nM | COc1cccc(-c2nnc3n2N=C(c2ccc(OC)c(N)c2)CS3)c1 [Compound 6i, 3-(3-Methoxyphenyl)-6-(3-amino-4-methoxyphenyl)-7H-[1,2,4]triazolo[3,4-b][1,3,4]thiadiazine] | dose-dependent inhibition of tubulin polymerization | the tubulin network showed a disruption | sub-G1 phase increase from 24 to 60 h; also recorded: cause subsequent apoptosis after G2/M arrest | induced cell arrest in G2/M phase from 0 to 12 h; also recorded: potent cell cycle arrests in G2/M phase |
|  | COc1ccc(/C=C\c2cc(OC)c(OC)c(OC)c2)cc1O [CA-4, Combretastatin A-4, reference compound] | dose-dependent inhibition of tubulin polymerization | the tubulin network showed a disruption |  | potent cell cycle arrests in G2/M phase |
